Results published in patent publication US20250049802A1, “COMBINATION THERAPIES AND USES FOR TREATING CANCER” (Pfizer Inc., priority 2021, published 2025).

Legend:
[1] = system: ST941 PDX breast cancer model; test: In vivo efficacy (tumor growth inhibition) in the HR+/HER2− ST941 PDX model; set-up: species or system female athymic nude mice
Protocol: The HR+/HER2− PDX studies were performed at START (San Antonio, TX) using female athymic nude mice (Foxn1nu/Foxn1nu, JAX Laboratories). Mice received 8.5 μg/mL β estradiol drinking water during study. The live donor mice were established by implanting cryopreserved tumor fragments (around 70 mg). Once ready, the donor tumor fragments were subsequently transplanted into secondary recipient mice for a study expansion.
Palbocidib was dosed twice daily (7 hr apart). PF-06821497 and vehicle was dosed once daily. Fulvestrant was administered twice in the first week, then weekly afterwards. TGI was assessed on Day 36 post first dose.
Tumor volume and body weights were measured twice a week after dosing initiation. Tumor volume i was calculated using the [(Length×Width×Width)/2)] formula. TGI was calculated as 100*(1−ΔT/ΔC). The ΔC (ΔT) was obtained by subtracting the mean tumor burden in the vehicle (treated) group on the first day of treatment (Day 0) from the mean tumor burden in vehicle (treated) group on the assessment day. All mice received treatment continuously until the day of efficacy assessment. Statistical analysis was performed in GraphPad Prism with an unpaired t test, followed by Mann-Whitney test.
The ST941 tumor bearing mice were randomized into 4 groups when the mean tumor volume reached around 177 mm3 and subsequently treated.

[2] = system: HCC1428 breast cancer model; test: In vivo efficacy (tumor growth inhibition) in the HR+/HER2− HCC1428 breast cancer model; set-up: species or system female NSG mice
Protocol: HCC1428 cells (ATCC, CRL-2327) were maintained in PRMI-1640 medium, plus 10% FBS until ready for implant. HCC1428 model was established by serial in vivo propagation. To establish the HCC1428 donor mice, tumor cells (5×10^6 cell/mouse with 50% Cultrex® Basement Membrane Matrix) were subcutaneously implanted in female NSG mice with estrogen supplementation (SC implanted, in 0.36 mg 90-day release, Innovative Research of America, cat #NE-121). Once reaching a range of 700 to 800 mm3, donor tumors were subsequently transplanted into secondary recipient mice for a study expansion. In this study, the HCC1428 model was established by implanting passage 4 tumor fragments into recipient mice. […] TGI was assessed on Day 36 post first dose.
Tumor volume and body weights were measured twice a week after dosing initiation. Tumor volume i was calculated using the [(Length×Width×Width)/2)] formula. TGI was calculated as 100*(1−ΔT/ΔC). […]

## COc1cc(C)[nH]c(=O)c1CN1CCc2c(Cl)cc([C@H](OC)C3COC3)c(Cl)c2C1=O [PF-06821497, 5,8-dichloro-2-[(4-methoxy-6-methyl-2-oxo-1,2-dihydro-pyridin-3-yl)methyl]-7-[(R)-methoxy(oxetan-3-yl)methyl]-3,4-dihydroisoquinolin-1(2H)-one]
[1]; TGI = 100*(1−ΔT/ΔC), doses and schedules per Table 2
  % TGI (D18): 44.6%
[1]; p<0.05 vs vehicle
  antitumor efficacy vs vehicle: significant antitumor efficacy
[2]; Day 36 post first dose, TGI = 100*(1−ΔT/ΔC), doses and schedules per Table 1
  % TGI (D36): 55%
[2]; p<0.05 vs vehicle
  antitumor efficacy vs vehicle: significant antitumor efficacy
